In PMC5281649 (European Journal of Nuclear Medicine and Molecular Imaging, 2016):
Like-named read-outs stand apart in the source and are kept apart here.

What was measured:
[1] = target: T1, brain MAO-B enzyme (Homo sapiens, UniProt P27338); assay: PET with [11C]-L-deprenyl-D2: brain MAO-B inhibition after repeated oral sembragiline; format: in vivo; conditions: mean (range); for [11C]-L-deprenyl-D2 λk3 post-dose: EC subjects; for [11C]-L-deprenyl-D2 λk3 post-dose / receptor occupancy at 0.2 mg: N = 3; for receptor occupancy at 0.2 mg / receptor occupancy at 5 mg / receptor occupancy at 1 mg / receptor occupancy at 0.1 mg: human, AD patients, read-out: Occ (MAO-B occupancy); for receptor occupancy at 0.2 mg: 168 h; for receptor occupancy at 5 mg: 216 h, 5 mg q.d. for 6–9 days; for receptor occupancy at 5 mg / receptor occupancy at 1 mg / receptor occupancy at 0.1 mg: N = 2; for receptor occupancy at 1 mg: 336 h; for receptor occupancy at 0.1 mg: 360 h, 5 mg loading day 1 then 0.1 mg q.d. days 2–15
T1 sequence (P27338 1-520): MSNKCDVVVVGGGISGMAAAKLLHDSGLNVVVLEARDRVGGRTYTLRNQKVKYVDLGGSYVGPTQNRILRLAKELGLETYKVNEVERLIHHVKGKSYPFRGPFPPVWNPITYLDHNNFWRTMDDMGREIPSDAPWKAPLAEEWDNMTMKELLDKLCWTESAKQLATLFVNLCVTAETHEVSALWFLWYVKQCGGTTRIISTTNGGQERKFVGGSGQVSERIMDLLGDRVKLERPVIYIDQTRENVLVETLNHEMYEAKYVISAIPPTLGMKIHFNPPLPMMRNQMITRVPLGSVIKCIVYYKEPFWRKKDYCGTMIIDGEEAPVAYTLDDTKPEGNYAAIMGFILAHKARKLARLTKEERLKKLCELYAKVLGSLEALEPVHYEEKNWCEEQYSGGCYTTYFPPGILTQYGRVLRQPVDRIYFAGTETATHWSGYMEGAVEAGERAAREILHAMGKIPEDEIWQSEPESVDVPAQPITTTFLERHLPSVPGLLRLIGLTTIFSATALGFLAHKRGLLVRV
Description: The first dose was administered at the study centre under the supervision of study personnel. On subsequent study days, treatment compliance was assured by intake logs and tablet counting.
At baseline, each subject underwent a PET scan using [^11C]-L-deprenyl-D2 to measure MAO-B enzyme activity in the brain prior to their first dose of allocated medication. The second scan was performed at trough concentrations at steady state prior to the last drug administration. Before each scan, a cannula was inserted into a radial artery and another into an antecubital vein. A sterile phosphate buffer (pH = 7.4) containing radioligand was injected as a bolus over several seconds into the cubital vein.
A transmission scan was performed using three rotating ^68Ge rod sources. [^11C]-L-Deprenyl-D2 was injected intravenously as a bolus, and emission data were acquired over 63 min using the ECAT EXACT high-resolution system (Siemens Medical Solutions, Malvern, PA, USA). The injected radioactivity was targeted to approximately 300 MBq. The injected mass of deprenyl was to be ≤100 μg, and ≥50–100-fold lower than the typical administered dose of 5–10 mg deprenyl to patients with Parkinson’s disease. The framing was as follows: 9 frames x 10 s, 2 frames x 15 s, 3 frames x 20 s, 4 frames x 30 s, 4 frames x 60 s, 4 frames x 180 s, 7 frames x 360 s. Images were reconstructed using the standard filtered back-projection, with a 2-mm Hanning filter, a zoom factor of 2.17, and a 128 × 128 matrix, and were corrected for attenuation and scatter. A summation PET image was created for each subject and PET session by averaging across all frames. Time–activity curves were then extracted from selected ROIs.
Arterial blood samples were used for measurement of radioactivity in whole blood and plasma, as well as to determine the parent fraction of the radioligand, using a reversed-phase high-performance liquid chromatography method (Karolinska University Hospital, Solna, Stockholm, Sweden). A catheter was inserted in the radial artery, and arterial blood was collected continuously for 10 min using an automated blood sampling system at a speed of 5 mL/min. Discrete blood samples were drawn approximately 10, 15, 20, 30, 45 and 60 min after each injection of [^11C]-L-deprenyl-D2.
Time–activity data were analysed as previously described. Briefly, [^11C]-L-deprenyl-D2 was quantified by the two-tissue compartment model with three rate constants (K 1, k 2, k 3) using the PMOD 3.3 software package (PMOD Group, Zurich, Switzerland), where the tissue compartments represent the free plus non-specifically bound and specifically bound radiotracer. The outcome measure λk 3 was calculated as (K 1/k 2)*k 3, using a non-linear approach, and was used as an estimate for specific binding to MAO-B that was independent of perfusion. […] This is because λk3 is independent of perfusion and has better reproducibility than k3 alone.

[2] = Safety assessments in this PET study; format: in vivo, human
Description: The safety of sembragiline was assessed by monitoring vital signs, laboratory tests and adverse events (AEs), and by evaluating the risk of suicide using the Columbia Suicide Severity Rating Scale.

[3] = 1 mg q.d. for 14 days, frontal cortex
[4] = 1 mg q.d. for 14 days, hippocampus
[5] = 1 mg q.d. for 14 days, parietal cortex
[6] = 1 mg q.d. for 14 days, striatum
[7] = 1 mg q.d. for 14 days, thalamus
[8] = 1 mg q.d. for 14 days, whole brain
[9] = 5 mg loading day 1 then 0.2 mg q.d. days 2–7, frontal cortex
[10] = 5 mg loading day 1 then 0.2 mg q.d. days 2–7, hippocampus
[11] = 5 mg loading day 1 then 0.2 mg q.d. days 2–7, parietal cortex
[12] = 5 mg loading day 1 then 0.2 mg q.d. days 2–7, striatum
[13] = 5 mg loading day 1 then 0.2 mg q.d. days 2–7, thalamus
[14] = 5 mg loading day 1 then 0.2 mg q.d. days 2–7, whole brain

## CC(=O)N[C@H]1CC(=O)N(c2ccc(OCc3cccc(F)c3)cc2)C1 [sembragiline]
[1]; [3]
  [11C]-L-deprenyl-D2 λk3 post-dose: 0.04 (0.04–0.05)
  receptor occupancy at 1 mg: 79.7%
[1]; [4]
  [11C]-L-deprenyl-D2 λk3 post-dose: 0.04 (0.03–0.05)
  receptor occupancy at 1 mg: 79.2%
[1]; [5]
  [11C]-L-deprenyl-D2 λk3 post-dose: 0.04 (0.04–0.05)
  receptor occupancy at 1 mg: 78%
[1]; [6]
  [11C]-L-deprenyl-D2 λk3 post-dose: 0.05 (0.04–0.06)
  receptor occupancy at 1 mg: 85%
[1]; [7]
  [11C]-L-deprenyl-D2 λk3 post-dose: 0.05 (0.04–0.05)
  receptor occupancy at 1 mg: 86%
[1]; [8]
  [11C]-L-deprenyl-D2 λk3 post-dose: 0.05 (0.04–0.05)
  receptor occupancy at 1 mg: 75.5%
[1]; [9]
  [11C]-L-deprenyl-D2 λk3 post-dose: 0.07 (0.06–0.09)
  receptor occupancy at 0.2 mg: 70.2%
[1]; [10]
  [11C]-L-deprenyl-D2 λk3 post-dose: 0.11 (0.09–0.13)
  receptor occupancy at 0.2 mg: 76.1%
[1]; [11]
  [11C]-L-deprenyl-D2 λk3 post-dose: 0.07 (0.06–0.09)
  receptor occupancy at 0.2 mg: 68.7%
[1]; [12]
  [11C]-L-deprenyl-D2 λk3 post-dose: 0.12 (0.09–0.14)
  receptor occupancy at 0.2 mg: 77.1%
[1]; [13]
  [11C]-L-deprenyl-D2 λk3 post-dose: 0.12 (0.09–0.13)
  receptor occupancy at 0.2 mg: 76.8%
[1]; [14]
  [11C]-L-deprenyl-D2 λk3 post-dose: 0.08 (0.07–0.10)
  receptor occupancy at 0.2 mg: 68.9%
[1]; frontal cortex
  receptor occupancy at 5 mg: 77.8%
  receptor occupancy at 0.1 mg: 56.9%
[1]; hippocampus
  receptor occupancy at 5 mg: 83.3%
  receptor occupancy at 0.1 mg: 53.8%
[1]; parietal cortex
  receptor occupancy at 5 mg: 78.1%
  receptor occupancy at 0.1 mg: 55.6%
[1]; striatum
  receptor occupancy at 5 mg: 84.8%
  receptor occupancy at 0.1 mg: 59.9%
[1]; thalamus
  receptor occupancy at 5 mg: 86.3%
  receptor occupancy at 0.1 mg: 60.4%
[1]; whole brain
  receptor occupancy at 5 mg: 76.3%
  receptor occupancy at 0.1 mg: 55.2%
[2]; 16 treated subjects (AD and EC)
  AEs reported as drug-related: 11 of 20
[2]; AD patients and EC subjects
  Changes in laboratory parameters, vital signs or ECG measurements: no clinically significant changes
[2]; AD patients and EC subjects, 0.1–5 mg daily for 6–15 days
  Tolerability: well tolerated
